Reference: patent US12325744B2, “Methods for reducing post-operative cognitive dysfunction (POCD)” (The Kennedy Trust for Rheumatology Research, priority 2010, dated 2025)
“Also recorded” adds a separate entry of the source.

Assays:
Format in all cases: in vivo
[1] = tested on: IL-1β; test: Hippocampal IL-1β by ELISA after tibial surgery; details: wild type mice, 6 h (minocycline, enrofloxacin) or 24 h (IL-1Ra) after surgery
Procedure: IL-6, TNF-α and IL-1β were measured by ELISA^19 (Biosource, CA; Bender Medsystem, CA, respectively). Hippocampal IL-1β was measured by ELISA (Bender Medsystem, CA), as previously described^20. To confirm reliability of dilution linearity and spike recovery cytokine measurement were also performed in mice in which inflammation was induced with i.p. LPS (0111:B4, Invivogen, CA). (For further details please refer to supplemental methods).
Under terminal anesthesia with pentobarbital, each mouse was euthanized and the brain quickly removed following decapitation. The hippocampus was dissected under microscopy on a frosted glass plate placed on top of crushed ice, then snap frozen and stored at −80° C. until processing. Each hippocampus was added to Iscove's culture medium containing 5% fetal calf serum (FCS) and a cocktail of enzyme inhibitors (in mM: 100 amino-n-caproic acid, 10 EDTA, 5 benzamidine-HCl, and 0.2 phenylmethylsulfonyl fluoride). […] IL-1β was measured in the supernatant from hippocampal extracts, which were appropriately diluted prior to measurement to fall on the linear portion of the sigmoid curve, using a commercially available ELISA kit (Bender Medsystem, CA). […]
Cytokine analyses: Systemic and hippocampal IL-1β was measured by ELISA (Bender Medsystem, CA; 1.2 pg/ml of sensitivity), as previously described (12).

[2] = tested on: C57-BL6 mice; test: Fear conditioning, freezing to context after tibial surgery; details: wild type mice, surgery 30 min after training, tested three days later
Procedure: (§1) Fear conditioning tests. Mice were conditioned 30 minutes or 3 days prior to intervention by training with two cycles of tone and foot-shock pairings. In delay fear conditioning a foot-shock was administered during the last 2 seconds of each 20 seconds-lasting tone.
(§2) In trace fear conditioning, the foot-shock onset, lasting 2 seconds as in the previous paradigm, followed a 20-second gap after each tone termination. Three days after conditioning, mice were placed back in the original conditioning chamber for 270 seconds, where no tone or shock were presented, to assess recall of contextual fear memory. After 3 h mice were placed in a novel environment (different context from training) to test for auditory-cued memory. Following an initial baseline period of 135 seconds during which freezing was scored in absence of noise, the auditory cue was presented for the final 135 seconds of the test, and freezing was again recorded. (For further details please refer to supplemental methods).
(§3) The behavioral study was conducted using a conditioning chamber (Med. Associates Inc., St. Albans, VT, USA). The back- and the side-walls of the chamber were made of aluminium, whereas the front door and the ceiling were of transparent Plexiglas. The floor of the chamber consisted of 36 stainless steel rods (1 mm diameter) spaced 0.5 cm apart (center-to-center). […]

[3] = tested on: C57-BL6 mice; test: Delay fear conditioning, auditory-cued test after tibial surgery; details: wild type mice, surgery with IL-1Ra pre-treatment
Procedure: as §1, §2, §3

[4] = tested on: C57BL/6 male mice; test: Observation of sickness behavior after LPS injection; details: LPS 1 mg/kg i.p.; IL-1Ra pre-treatment
Procedure: Animals. All the experiments were conducted under the UK Home Office approved license. Wild type C57BL/6 male mice, 12-14 weeks old, weighting 25-30 g were used and housed in groups of five in a 12-h-12-h light dark cycle, with controlled temperature and humidity with free access to food and water. IL-1R^−/− (kindly provided by Nancy Rothwell, University of Manchester) were bred in-house on a C57BL/6 background and age-matched to wild type counterparts. Seven days of acclimatization were allowed before starting any experiment. All the animals were checked on a daily basis and evidence of poor grooming, huddling, piloerection, weight loss, back arching and abnormal activity, were excluded in the experiments.
Treatment. LPS derived from Escherichia Coli endotoxin ([…], InvivoGen, USA, 1 mg/kg) was dissolved in normal saline and injected intraperitoneally. IL-1Ra (Amgen, Anakinra 100 mg/kg, Nederlands) was given subcutaneously immediately before LPS administration. Dose response curve from LPS or IL-1Ra was obtained from our pilot studies to provoke or to suppress moderate degree of microglia activation respectively. Control animals were injected with equivalent volumes (0.1 ml) of saline. […]

IL-1Ra: IL-1 receptor antagonist (Amgen, Anakinra)
Hippocampal IL-1β expression after surgery, effect of treatment [1]: did not increase hippocampal microgliosis (FIG. 6, A-B-C) or expression of IL-1β; also recorded: Hippocampal IL-1β did not significantly increase | Freezing to context (delay fear conditioning) after surgery, effect of treatment [2]: prevented the decrement in postoperative freezing behavior; also recorded: significantly reduced the surgery-induced decrement in freezing behavior | Freezing in the auditory-cued test after delay fear conditioning [3]: showed no difference; also recorded: There was no difference between the groups | Symptoms of sickness behavior after LPS, effect of IL-1Ra [4]: abolished the main symptoms of sickness behavior
